Results: ChEMBL document CHEMBL1130529, “Synthesis and biological activity of 1,2,3,4-tetrahydroquinoline and 3,4-(1H)-dihydroquinolin-2-one analogs of retinoic acid” (Bioorg Med Chem Lett, 1997)

What was measured:
[1] = target: T1, Retinoic acid receptor gamma (Homo sapiens, UniProt P13631); experiment: Binding affinity for Retinoic acid receptor gamma
T1 sequence (P13631 whole entry): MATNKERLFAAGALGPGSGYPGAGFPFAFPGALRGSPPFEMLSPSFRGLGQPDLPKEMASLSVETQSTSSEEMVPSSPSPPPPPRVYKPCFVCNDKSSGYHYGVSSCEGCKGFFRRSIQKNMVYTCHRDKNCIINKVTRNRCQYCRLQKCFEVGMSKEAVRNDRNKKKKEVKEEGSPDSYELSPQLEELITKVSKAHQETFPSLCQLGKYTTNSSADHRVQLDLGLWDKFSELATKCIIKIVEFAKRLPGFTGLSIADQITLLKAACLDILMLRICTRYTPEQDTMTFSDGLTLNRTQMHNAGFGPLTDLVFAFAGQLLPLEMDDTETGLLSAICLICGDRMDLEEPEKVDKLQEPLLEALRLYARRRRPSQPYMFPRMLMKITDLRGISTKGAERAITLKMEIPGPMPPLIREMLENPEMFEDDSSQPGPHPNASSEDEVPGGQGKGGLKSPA

[2] = target: T2, Retinoic acid receptor beta (Homo sapiens, UniProt P10826); experiment: Transactivation potency for Retinoic acid receptor beta
T2 sequence (P10826 whole entry): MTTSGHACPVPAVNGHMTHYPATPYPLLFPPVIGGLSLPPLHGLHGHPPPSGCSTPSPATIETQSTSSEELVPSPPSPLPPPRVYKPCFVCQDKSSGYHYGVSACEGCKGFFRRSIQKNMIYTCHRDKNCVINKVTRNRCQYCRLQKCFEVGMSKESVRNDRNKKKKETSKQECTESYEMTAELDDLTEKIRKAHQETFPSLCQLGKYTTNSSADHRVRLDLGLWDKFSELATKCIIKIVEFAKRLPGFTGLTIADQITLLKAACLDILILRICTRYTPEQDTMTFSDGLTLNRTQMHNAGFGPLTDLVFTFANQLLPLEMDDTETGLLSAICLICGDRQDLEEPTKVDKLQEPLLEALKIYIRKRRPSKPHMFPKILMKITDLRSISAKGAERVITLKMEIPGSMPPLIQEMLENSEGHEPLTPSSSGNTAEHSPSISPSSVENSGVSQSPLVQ

[3] = target: T3, Retinoic acid receptor alpha (Homo sapiens, UniProt P10276); experiment: Transactivation potency for Retinoic acid receptor alpha; Not active
T3 sequence (P10276 whole entry): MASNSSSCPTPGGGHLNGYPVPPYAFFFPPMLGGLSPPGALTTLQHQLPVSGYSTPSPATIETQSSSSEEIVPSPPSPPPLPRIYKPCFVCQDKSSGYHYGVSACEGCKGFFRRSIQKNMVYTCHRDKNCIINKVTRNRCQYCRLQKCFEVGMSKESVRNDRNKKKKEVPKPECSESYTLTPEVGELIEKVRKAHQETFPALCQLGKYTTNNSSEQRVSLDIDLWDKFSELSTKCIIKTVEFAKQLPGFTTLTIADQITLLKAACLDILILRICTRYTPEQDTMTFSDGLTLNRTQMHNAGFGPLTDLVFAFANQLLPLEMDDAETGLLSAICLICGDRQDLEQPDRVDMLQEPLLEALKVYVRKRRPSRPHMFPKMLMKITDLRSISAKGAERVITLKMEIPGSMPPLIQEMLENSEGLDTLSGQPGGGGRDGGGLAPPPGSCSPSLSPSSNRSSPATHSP

[4] = target: T3, Retinoic acid receptor alpha; experiment: Binding affinity for Retinoic acid receptor alpha
[5] = target: T2, Retinoic acid receptor beta; experiment: Binding affinity for Retinoic acid receptor beta
[6] = target: T1, Retinoic acid receptor gamma; experiment: Transactivation potency for Retinoic acid receptor gamma
[7] = target: T3, Retinoic acid receptor alpha; experiment: Binding affinity for Retinoic acid receptor alpha; Not active
[8] = target: T4, Ornithine decarboxylase (Mus musculus) (UniProt P00860); experiment: Inhibition of ornithine decarboxylase activity in hairless mouse skin in vivo; assay type: organism-based
T4 sequence (whole entry): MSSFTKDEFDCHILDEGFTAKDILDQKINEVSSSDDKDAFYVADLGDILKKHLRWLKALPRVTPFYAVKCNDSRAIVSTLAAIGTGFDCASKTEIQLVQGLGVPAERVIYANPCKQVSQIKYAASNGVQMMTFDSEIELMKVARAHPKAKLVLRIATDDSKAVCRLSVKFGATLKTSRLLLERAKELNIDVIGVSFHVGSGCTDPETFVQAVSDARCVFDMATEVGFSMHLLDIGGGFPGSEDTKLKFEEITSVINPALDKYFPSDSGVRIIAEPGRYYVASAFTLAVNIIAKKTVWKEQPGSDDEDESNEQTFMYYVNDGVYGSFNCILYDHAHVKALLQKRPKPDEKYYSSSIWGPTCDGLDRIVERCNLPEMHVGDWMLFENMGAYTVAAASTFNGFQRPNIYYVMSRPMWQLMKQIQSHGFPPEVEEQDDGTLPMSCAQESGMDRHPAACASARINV

[9] = target: T1, Retinoic acid receptor gamma; experiment: Transactivation potency for Retinoic acid receptor gamma; Not active
[10] = target: T2, Retinoic acid receptor beta; experiment: Transactivation potency for Retinoic acid receptor beta; Not active
[11] = target: T3, Retinoic acid receptor alpha; experiment: Transactivation potency for Retinoic acid receptor alpha

Kd [1] [nM] | EC50 [2] [nM] | EC50 [3] | Kd [4] [nM] | Kd [5] [nM] | EC50 [6] [nM] | IC60 [8] [nM] | SMILES | other results
> 1000 | 1000 | Not Active | > 1000 | > 1000 | 200 |  | CC1(C)CC(=O)Nc2cc(C#Cc3ccc(C(=O)O)cc3)ccc21 | 
233 | 36 | Not Active |  | 211 | 54 |  | CC1(C)CCNc2cc(C#Cc3ccc(C(=O)O)cc3)ccc21 | Kd [7]: Not Active
 |  |  |  |  |  | 2.9 | CCOC(=O)c1ccc(C#Cc2ccc3c(c2)N(C(C)C)C(=O)CC3(C)C)cc1 | 
> 1000 |  | Not Active | > 1000 | > 1000 |  |  | CC1(C)CC(=O)Nc2ccc(C#Cc3ccc(C(=O)O)cc3)cc21 | EC50 [9]: Not Active; EC50 [10]: Not Active
 |  |  |  |  |  | < 0.1 | CCOC(=O)c1ccc(C#Cc2ccc3c(c2)N(C(C)C)CCC3(C)C)cc1 | 
> 1000 | 280 | Not Active | > 1000 | > 1000 | 260 |  | CCCCCCCN1CCC(C)(C)c2cc(C#Cc3ccc(C(=O)O)cc3)ccc21 | 
52 | 3 |  | 52 | 18 | 3 |  | CC(C)N1CCC(C)(C)c2ccc(C#Cc3ccc(C(=O)O)cc3)cc21 | EC50 ([3]; read-out: EC50): 17 nM
 |  |  |  |  |  | > 300 | CCOC(=O)c1ccc(C#Cc2ccc3c(c2)NC(=O)CC3(C)C)cc1 | 
 |  |  |  |  |  | 1.4 | CC1=C(/C=C/C(C)=C/C=C/C(C)=C/C(=O)O)C(C)(C)CCC1 | 
 |  |  |  |  |  | 5 | CCOC(=O)c1ccc(C#Cc2ccc3c(c2)C(C)(C)CCN3)cc1 | 
2420 | 170 |  | 5200 | 714 | 130 |  | CC1(C)CCNc2ccc(C#Cc3ccc(C(=O)O)cc3)cc21 | EC50 [11]: 2300 nM
 |  |  |  |  |  | 0.4 | CCOC(=O)c1ccc(C#Cc2ccc3c(c2)C(C)(C)CCN3C(C)C)cc1 | 
23 | 4 | Not Active | 58 | 18 | 20 |  | CC(C)N1C(=O)CC(C)(C)c2ccc(C#Cc3ccc(C(=O)O)cc3)cc21 | 
 |  |  |  |  |  | > 300 | CCCCCCCN1CCC(C)(C)c2cc(C#Cc3ccc(C(=O)OCC)cc3)ccc21 | 
 |  |  |  |  |  | > 300 | CCOC(=O)c1ccc(C#Cc2ccc3c(c2)C(C)(C)CC(=O)N3)cc1 | 
72 | 10 | Not Active | 627 | 60 | 6 |  | CC(C)N1CCC(C)(C)c2cc(C#Cc3ccc(C(=O)O)cc3)ccc21 | 
 |  |  |  |  |  | 7 | CCOC(=O)c1ccc(C#Cc2ccc3c(c2)NCCC3(C)C)cc1 | 
 |  |  |  |  |  | 6 | CCOC(=O)c1ccc(C#Cc2ccc3c(c2)C(C)(C)CC(=O)N3C(C)C)cc1 | 
 |  |  |  |  |  | 0.33 | CCOC(=O)c1ccc(/C=C(\C)c2ccc3c(c2)C(C)(C)CCC3(C)C)cc1 | 
17 | 4 | Not Active | 136 | 17 | 4 |  | CC(C)N1C(=O)CC(C)(C)c2cc(C#Cc3ccc(C(=O)O)cc3)ccc21 | 
